Source: patent US8318717B2, “Compounds modifying apoptosis” (2cureX, priority 2005, dated 2012)

What was measured:
[1] = system: primary colon cancer cells from patients and colon cancer lines (i.e. HT29); assay: Cell penetration, IAP inhibition and apoptosis in colon cancer cells; type: cell-based, human
[2] = system: human colorectal adenocarcinoma cell line HT-29; assay: Xenograft study, HT-29 tumours in nude mice; type: in vivo, nude BALB/c mice
Excerpt: Female athymic nude BALB/c mice (BALB/cABom-Foxn1^nu, CA.Cg-Foxn1^nu) are obtained from Taconic Ltd, Ry, Denmark and maintained in the animal facility. Animals are approximately 6 weeks old with an initial body weight of 17-18 g when used for the experiments. The mice are housed in microisolators (filter top cages, Tecniplast, Buguggiata, Italy) under pathogen-free conditions with a 12-h light/12-h dark schedule and fed autoclaved standard chow (Altromin #1324, Lage, Germany) and water ad libitum throughout the experiment. All animals are handled under sterile conditions and maintained in a separate facility. The Danish Experimental Animal Inspectorate has approved the experimental protocol and all animal experiments are performed according to the ethical standards required by the UKCCCCR Guidelines {UKCCCR 1998}. During the study blood samples is taken one time per week. The number of animals per group (control-treatment) should be 8 animals at a minimum. Thirty-fifty percent more animals are inoculated with cells than needed in the study in order to be able to exclude animals in which there is no tumour take—i.e. the tumour fails to establish and grow progressively.
The human colorectal adenocarcinoma cell line HT-29 (HTB-38) has been obtained from the American Type Culture Collection (ATCC) Manassas, Va., USA. Tumour cells growing exponentially are harvested by brief incubation with 0.05% Trypsin-EDTA solution suspended in new medium for injection.
Tumour xenografts are initiated by subcutaneous (s.c.) injection of 10^7 cells into the left flank of nude mice. […]
Tumour volume, food consumption, body weight is measured twice a week. […] Evaluation of tumour growth: The tumours are measured every 3-4 day with a calliper. Baseline tumour weight are calculated by using the following formula mg=(L×W^2)/2 where L=length, W=width and these are perpendicular to each other {Teicher BA 1997}. […]
All data are expressed as the mean±SEM, and statistical analyses of the tumour data are performed using t-test. […]

XIAP = target: T1, XIAP (Homo sapiens, UniProt P98170); assay: Pull down of XIAP from cell lysates by compound-carrying beads (Western); type: binding
T1 construct: pull down one member of the IAP family, XIAP from cell lysates prepared from various tissues; endogenous in cells; host or cells: Hek293 cells, Hela cells, colon tissue (lysates)
Protocol: Beads displaying compound 2CX2.201 or 2CX4.401 respectively are compared with regard to their ability to bind and pull down one member of the IAP family, XIAP from cell lysates prepared from various tissues.
• Positive control resin beads carrying a tetra-peptide (H-Ala-Val-Pro-Phe-Bead) mimicking the N-terminal part of Smac that binds to BIR3 domain of XIAP was prepared. The method of preparation was analogous to the general procedure described in example 2 with the change that only the four specific peptides were included in each of the four couplings and that the split and mix step was omitted. • Resin beads carrying 2CX2.201 was prepared as described above. • Resin beads carrying 2CX4.401 was prepared as described above. Lysate Preparation: • Hek293 and Hela: Cells are scraped off the plate in Phosphate Buffered Saline (PBS) at 4° C. • Colon tissue: Is blended into a homogeneous suspension in PBS at 4° C. • All cell suspensions are centrifuged for 10 min at 3000 rpm and supernatant is discarded. • Pellet is re-suspended in lysis buffer (50 mM Tris-HCL, 1 mM EGTA, 1 mM EDTA, 1% Triton-X W/W, 1 mM Sodium orthovanadate, 50 mM Sodium fluoride, 5 mM Sodium pyrophosphate, 1 mM MDTT, “Complete” (protease inh.) One tablet for 50 ml) • Incubate for 20 min at 4° C. • Centrifuge at 32.000 G for 30 min, 4° C. • Move supernatant to new vial (discard pellet) • Measure protein concentration Pull Down: • Bead/lysate ratio: 20 ul beads/10 mg lysate (equivalent to one pull down) • Beads are washed in 1 ml lysis buffer×2 • Lysate+beads are mixed and incubated for 1 hrs at 4° C., shaking • Beads are washed ×4 in 1 ml Lysis buffer w. […]

[3] = Stability in serum from mice; type: in vitro ADME

T1 sequence (P98170 whole entry): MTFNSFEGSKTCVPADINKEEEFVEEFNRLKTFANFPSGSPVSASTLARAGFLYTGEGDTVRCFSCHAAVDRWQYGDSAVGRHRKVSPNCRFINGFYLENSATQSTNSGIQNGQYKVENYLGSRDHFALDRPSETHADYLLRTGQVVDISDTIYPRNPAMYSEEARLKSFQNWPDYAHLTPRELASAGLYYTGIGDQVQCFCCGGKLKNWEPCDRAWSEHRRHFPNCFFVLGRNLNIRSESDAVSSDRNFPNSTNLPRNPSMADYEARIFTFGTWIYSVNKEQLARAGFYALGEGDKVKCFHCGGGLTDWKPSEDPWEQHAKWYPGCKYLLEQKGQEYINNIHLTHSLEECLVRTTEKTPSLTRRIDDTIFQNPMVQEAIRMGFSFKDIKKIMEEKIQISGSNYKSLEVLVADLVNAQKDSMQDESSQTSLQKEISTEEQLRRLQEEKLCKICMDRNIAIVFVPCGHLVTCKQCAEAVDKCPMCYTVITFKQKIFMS

SMILES: CN[C@@H](C)C(=O)N[C@H](C(=O)N1C[C@@H](NCC2CCCCC2)C[C@H]1C(=O)N[C@@H](Cc1ccccc1)C(N)=O)C(C)C [2CX4.401]
- apoptosis [1]: promote apoptosis
- inhibition of IAPs [1]: inhibits IAPs
- effect on Paclitaxel efficacy (tumour weight) ([2]; combination with paclitaxel, 29 days after inoculation, FIG. 4): significantly potentiated the effect of Paclitaxel
- tumour weight relative to that observed with Paclitaxel alone ([2]; combined treatment: 2CX4.401 0.0625 mg/h osmotic pump + paclitaxel 25 mg/kg s.c. once a week, 29 days after inoculation): approx. 15%
- tumour growth in mono-therapy ([2]; mono-therapy, osmotic pump 0.0625 mg/h, 29 days): does not affect tumour growth
- affinity for XIAP, comparison of the two compounds (XIAP; conclusion from pull down experiments): significant higher affinity than that of 2CX2.201
- pull down of XIAP (FIG. 5a) (XIAP; lysates of Hek293, Hela, colon tissue, compound on beads): approximately the same degree as the endogenous AVPF peptide
- pull down of XIAP (FIG. 5b) (XIAP; prolonged exposure time to increase sensitivity): weaker effect
- stability in serum [3]: high degree of stability
